Each block holds one molecule with its values, some of them ahead of it.
Key:
[1] = target: Sigma non-opioid intracellular receptor 1 (Cavia porcellus, UniProt Q60492); assay: Displacement of [3H](+)-pentazocine from sigma 1 receptor in guinea pig brain assessed as inhibition constant by competition binding assay; format: tissue-based
[2] = Selectivity ratio of Ki for displacement of [3H](+)-pentazocine from sigma 1 receptor in guinea pig brain to Ki for displacement of [3H]-ditolylguanidine from sigma 2 receptor/TMEM97 in rat PC-12 cells; format: cell-based
[3] = target: T1, Sigma intracellular receptor 2 (Rattus norvegicus, UniProt Q5U3Y7); assay: Displacement of [3H]-ditolylguanidine from sigma 2 receptor/TMEM97 in rat PC-12 cells assessed as inhibition constant in the presence of (+)-pentazocine by competition binding assay; format: cell-based
T1 sequence (Q5U3Y7 whole entry): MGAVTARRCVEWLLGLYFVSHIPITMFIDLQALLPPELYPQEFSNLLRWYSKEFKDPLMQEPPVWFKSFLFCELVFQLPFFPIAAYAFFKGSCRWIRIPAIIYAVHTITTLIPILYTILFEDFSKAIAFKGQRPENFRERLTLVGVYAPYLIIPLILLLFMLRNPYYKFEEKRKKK

[4] = target: T2, Sigma non-opioid intracellular receptor 1 (Homo sapiens, UniProt Q99720); assay: Binding affinity to sigma 1 receptor (unknown origin) assessed as inhibition constant
[5] = target: T3, Sigma intracellular receptor 2 (Homo sapiens, UniProt Q5BJF2); assay: Binding affinity to sigma 2 receptor/TMEM97 (unknown origin) assessed as inhibition constant
[6] = target: T2, Sigma non-opioid intracellular receptor 1; assay: Displacement of [3H](+)-pentazocine from human sigma 1 receptor transfected in HEK293 cells assessed as inhibition constant by competition binding assay; format: cell-based
[7] = target: T3, Sigma intracellular receptor 2; assay: Displacement of [3H]-ditolylguanidine from human sigma 2 receptor/TMEM97 transfected in HEK293 cells assessed as inhibition constant in the presence of (+)-pentazocine by competition binding assay; format: cell-based
[8] = target: T3, Sigma intracellular receptor 2; assay: Potency index, ratio of JVW-1601 Ki to test compound Ki for displacement of [3H]-ditolylguanidine from human sigma 2 receptor/TMEM97 transfected in HEK293 cells assessed as inhibition constant in the presence of (+)-pentazocine by competition binding assay; format: cell-based
D(2) dopamine receptor = D(2) dopamine receptor (Homo sapiens, UniProt P14416); assay: Binding affinity to human dopamine D2 receptor assessed as inhibition constant
[9] = Half-life in mouse at 10 mg/kg, ip; format: ADME, organism-based; details: in vivo
[10] = Ratio of drug concentration in mouse brain to plasma at 10 mg/kg, ip measured after 4 hrs; format: ADME, organism-based; details: read-out: BPR
[11] = target: Delta-type opioid receptor (Homo sapiens, UniProt P41143); assay: Binding affinity at human DOR assessed as inhibition constant
[12] = target: Serotonin 3 (5-HT3) receptor; assay: Binding affinity to human 5HT3 receptor assessed as inhibition constant; format: protein-complex assay
Mu-type opioid receptor = Mu-type opioid receptor (Homo sapiens, UniProt P35372); assay: Binding affinity at human MOR assessed as inhibition constant
[13] = target: Sodium-dependent noradrenaline transporter (Homo sapiens, UniProt P23975); assay: Binding affinity at human Norepinephrine transporter assessed as inhibition constant
[14] = target: Beta-1 adrenergic receptor (Homo sapiens, UniProt P08588); assay: Binding affinity to human beta 1 adrenergic receptor assessed as inhibition constant
[15] = target: Muscarinic acetylcholine receptor M4 (Homo sapiens, UniProt P08173); assay: Binding affinity at human muscarinic M4 receptor assessed as inhibition constant
[16] = target: Kappa-type opioid receptor (Homo sapiens, UniProt P41145); assay: Binding affinity at human KOR assessed as inhibition constant
[17] = target: Beta-2 adrenergic receptor (Homo sapiens, UniProt P07550); assay: Binding affinity to human beta 2 adrenergic receptor assessed as inhibition constant
[18] = Ratio of unbound drug concentration in mouse brain to plasma at 10 mg/kg, ip measured after 4 hrs; format: ADME, organism-based; details: read-out: K(p,uu,brain)
[19] = target: Alpha-1B adrenergic receptor (Homo sapiens, UniProt P35368); assay: Binding affinity to human alpha 1B adrenergic receptor assessed as inhibition constant
[20] = Selectivity ratio of Ki for displacement of [3H]-ditolylguanidine from human sigma 2 receptor/TMEM97 transfected in HEK293 cells to Ki for displacement of [3H]-ditolylguanidine from sigma 2 receptor/TMEM97 in rat PC-12 cells; format: cell-based
[21] = Binding affinity to human Ca2+ ion channel assessed as inhibition constant
[22] = target: Muscarinic acetylcholine receptor M1 (Homo sapiens, UniProt P11229); assay: Binding affinity at human muscarinic M1 receptor assessed as inhibition constant
[23] = Selectivity ratio of Ki for displacement of [3H](+)-pentazocine from sigma 1 receptor in guinea pig brain to Ki for displacement of [3H](+)-pentazocine from human sigma 1 receptor transfected in HEK293 cells; format: cell-based
[24] = target: Muscarinic acetylcholine receptor M2 (Homo sapiens, UniProt P08172); assay: Binding affinity at human muscarinic M2 receptor assessed as inhibition constant
P-glycoprotein (MDR1) = assay: Efflux ratio of permeability in MDCK-MDR1 cells expressing P-glycoprotein; format: ADME, cell-based, Canis lupus familiaris; details: dog
[25] = target: Sodium-dependent serotonin transporter (Homo sapiens, UniProt P31645); assay: Binding affinity at human SERT assessed as inhibition constant
[26] = target: Muscarinic acetylcholine receptor M3 (Homo sapiens, UniProt P20309); assay: Binding affinity at human muscarinic M3 receptor assessed as inhibition constant
[27] = Drug concentration in mouse brain at 10 mg/kg, ip measured after 4 hrs; format: ADME, organism-based; details: read-out: Ct
[28] = target: 5-hydroxytryptamine receptor 1E (Homo sapiens, UniProt P28566); assay: Binding affinity to human 5HT1E receptor assessed as inhibition constant
[29] = target: Beta-3 adrenergic receptor (Homo sapiens, UniProt P13945); assay: Binding affinity to human beta 3 adrenergic receptor assessed as inhibition constant
[30] = target: Alpha-2C adrenergic receptor (Homo sapiens, UniProt P18825); assay: Binding affinity to human alpha 2C adrenergic receptor assessed as inhibition constant
[31] = target: GABA-A receptor; anion channel; assay: Binding affinity at human GABA A receptor assessed as inhibition constant; format: protein-complex assay
Translocator protein = Translocator protein (Homo sapiens, UniProt P30536); assay: Binding affinity at human PBR assessed as inhibition constant

T3 sequence (Q5BJF2 whole entry): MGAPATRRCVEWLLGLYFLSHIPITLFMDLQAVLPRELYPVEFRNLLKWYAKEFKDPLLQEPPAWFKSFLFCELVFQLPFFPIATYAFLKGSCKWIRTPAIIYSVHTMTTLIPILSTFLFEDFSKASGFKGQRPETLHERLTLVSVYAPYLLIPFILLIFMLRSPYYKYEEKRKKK
Sigma non-opioid intracellular receptor 1 (Cavia porcellus, UniProt Q60492), sequence (Q60492 whole entry): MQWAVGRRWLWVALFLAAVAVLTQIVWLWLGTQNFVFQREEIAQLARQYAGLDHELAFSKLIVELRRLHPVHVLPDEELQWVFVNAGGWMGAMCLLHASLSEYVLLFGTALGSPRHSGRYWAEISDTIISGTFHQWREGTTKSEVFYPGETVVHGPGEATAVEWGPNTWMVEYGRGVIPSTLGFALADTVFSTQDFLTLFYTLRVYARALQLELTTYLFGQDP
T2 sequence (Q99720 whole entry): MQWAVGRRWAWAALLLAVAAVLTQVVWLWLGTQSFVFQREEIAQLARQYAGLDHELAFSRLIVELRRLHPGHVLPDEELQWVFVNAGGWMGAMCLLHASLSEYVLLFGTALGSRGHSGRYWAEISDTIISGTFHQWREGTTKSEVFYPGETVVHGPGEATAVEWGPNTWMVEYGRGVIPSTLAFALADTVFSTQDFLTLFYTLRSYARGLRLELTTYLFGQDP
Muscarinic acetylcholine receptor M1, sequence (P11229 whole entry): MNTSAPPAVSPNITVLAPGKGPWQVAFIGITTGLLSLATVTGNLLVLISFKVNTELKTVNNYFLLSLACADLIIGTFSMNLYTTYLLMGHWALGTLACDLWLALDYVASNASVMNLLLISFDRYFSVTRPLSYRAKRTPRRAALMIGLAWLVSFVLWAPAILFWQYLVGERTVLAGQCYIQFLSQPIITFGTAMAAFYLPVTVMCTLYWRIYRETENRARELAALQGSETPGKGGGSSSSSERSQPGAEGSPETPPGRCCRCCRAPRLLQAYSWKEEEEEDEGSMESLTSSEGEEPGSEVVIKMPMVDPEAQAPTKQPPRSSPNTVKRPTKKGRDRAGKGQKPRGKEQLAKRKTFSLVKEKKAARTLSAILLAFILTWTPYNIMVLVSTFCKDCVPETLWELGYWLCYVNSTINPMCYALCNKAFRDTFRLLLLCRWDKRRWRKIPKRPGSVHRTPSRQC
Delta-type opioid receptor, sequence (P41143 whole entry): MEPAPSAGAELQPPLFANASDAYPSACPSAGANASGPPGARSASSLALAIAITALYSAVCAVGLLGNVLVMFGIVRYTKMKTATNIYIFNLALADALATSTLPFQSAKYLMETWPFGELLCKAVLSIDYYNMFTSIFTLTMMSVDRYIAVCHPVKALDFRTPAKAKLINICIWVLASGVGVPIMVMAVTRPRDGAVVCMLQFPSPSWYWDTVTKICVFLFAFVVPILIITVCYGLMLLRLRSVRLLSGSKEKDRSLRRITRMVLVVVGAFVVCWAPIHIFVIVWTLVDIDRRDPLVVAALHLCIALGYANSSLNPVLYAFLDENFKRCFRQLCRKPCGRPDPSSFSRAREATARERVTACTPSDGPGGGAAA
Muscarinic acetylcholine receptor M4, sequence (P08173 whole entry): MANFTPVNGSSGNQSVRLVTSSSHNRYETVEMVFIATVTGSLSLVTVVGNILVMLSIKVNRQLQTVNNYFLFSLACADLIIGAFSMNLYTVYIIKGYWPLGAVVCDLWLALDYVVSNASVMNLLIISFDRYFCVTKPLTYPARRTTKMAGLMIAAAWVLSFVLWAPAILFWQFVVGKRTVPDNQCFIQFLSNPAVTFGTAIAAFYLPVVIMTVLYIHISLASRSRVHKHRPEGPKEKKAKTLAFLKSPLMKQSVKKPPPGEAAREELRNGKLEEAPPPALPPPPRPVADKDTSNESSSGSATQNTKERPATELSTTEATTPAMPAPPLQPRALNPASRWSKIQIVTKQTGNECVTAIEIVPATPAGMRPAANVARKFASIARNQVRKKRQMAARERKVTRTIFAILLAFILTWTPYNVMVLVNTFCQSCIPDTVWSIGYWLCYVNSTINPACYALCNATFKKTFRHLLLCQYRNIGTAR
Sodium-dependent noradrenaline transporter, sequence (P23975 whole entry): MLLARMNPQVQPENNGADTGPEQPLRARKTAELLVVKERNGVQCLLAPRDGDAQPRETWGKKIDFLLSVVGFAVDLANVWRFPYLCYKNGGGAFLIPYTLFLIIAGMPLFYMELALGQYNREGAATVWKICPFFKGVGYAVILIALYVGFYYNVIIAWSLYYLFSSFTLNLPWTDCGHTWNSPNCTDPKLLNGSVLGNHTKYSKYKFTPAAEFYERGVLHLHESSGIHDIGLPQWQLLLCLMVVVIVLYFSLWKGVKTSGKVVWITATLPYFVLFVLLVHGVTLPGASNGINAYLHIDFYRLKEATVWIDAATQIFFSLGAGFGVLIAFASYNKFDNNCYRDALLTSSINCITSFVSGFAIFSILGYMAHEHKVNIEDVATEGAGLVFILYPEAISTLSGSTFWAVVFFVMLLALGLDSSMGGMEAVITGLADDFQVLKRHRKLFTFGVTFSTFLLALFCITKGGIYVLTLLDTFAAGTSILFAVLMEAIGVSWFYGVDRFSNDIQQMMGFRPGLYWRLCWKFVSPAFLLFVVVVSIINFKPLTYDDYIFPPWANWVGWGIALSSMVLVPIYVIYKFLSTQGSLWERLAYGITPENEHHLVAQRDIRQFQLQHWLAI
Alpha-2C adrenergic receptor, sequence (P18825 whole entry): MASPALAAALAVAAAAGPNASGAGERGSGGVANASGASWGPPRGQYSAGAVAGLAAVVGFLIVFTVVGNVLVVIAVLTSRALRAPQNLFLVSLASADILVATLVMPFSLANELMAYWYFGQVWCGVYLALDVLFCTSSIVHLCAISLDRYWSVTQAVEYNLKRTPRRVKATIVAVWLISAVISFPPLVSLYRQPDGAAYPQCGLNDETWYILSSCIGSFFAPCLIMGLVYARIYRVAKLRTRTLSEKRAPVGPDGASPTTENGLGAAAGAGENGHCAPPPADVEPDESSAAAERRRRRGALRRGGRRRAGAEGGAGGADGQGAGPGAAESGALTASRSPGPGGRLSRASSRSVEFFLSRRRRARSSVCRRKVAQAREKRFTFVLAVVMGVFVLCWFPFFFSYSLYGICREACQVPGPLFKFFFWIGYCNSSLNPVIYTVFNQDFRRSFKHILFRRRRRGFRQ
Beta-1 adrenergic receptor, sequence (P08588 whole entry): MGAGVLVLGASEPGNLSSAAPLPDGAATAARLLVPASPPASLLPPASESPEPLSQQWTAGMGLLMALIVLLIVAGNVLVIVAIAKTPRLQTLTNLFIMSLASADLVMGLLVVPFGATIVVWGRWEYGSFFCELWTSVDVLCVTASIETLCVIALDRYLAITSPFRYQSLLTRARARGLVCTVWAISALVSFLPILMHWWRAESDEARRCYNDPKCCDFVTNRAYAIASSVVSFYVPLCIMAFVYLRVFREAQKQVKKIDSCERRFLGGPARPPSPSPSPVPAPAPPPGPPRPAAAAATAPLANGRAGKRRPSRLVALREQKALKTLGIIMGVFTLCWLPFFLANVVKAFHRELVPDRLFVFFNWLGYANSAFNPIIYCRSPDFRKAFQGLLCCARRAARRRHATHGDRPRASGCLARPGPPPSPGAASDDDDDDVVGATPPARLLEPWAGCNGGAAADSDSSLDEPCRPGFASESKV
Sodium-dependent serotonin transporter, sequence (P31645 whole entry): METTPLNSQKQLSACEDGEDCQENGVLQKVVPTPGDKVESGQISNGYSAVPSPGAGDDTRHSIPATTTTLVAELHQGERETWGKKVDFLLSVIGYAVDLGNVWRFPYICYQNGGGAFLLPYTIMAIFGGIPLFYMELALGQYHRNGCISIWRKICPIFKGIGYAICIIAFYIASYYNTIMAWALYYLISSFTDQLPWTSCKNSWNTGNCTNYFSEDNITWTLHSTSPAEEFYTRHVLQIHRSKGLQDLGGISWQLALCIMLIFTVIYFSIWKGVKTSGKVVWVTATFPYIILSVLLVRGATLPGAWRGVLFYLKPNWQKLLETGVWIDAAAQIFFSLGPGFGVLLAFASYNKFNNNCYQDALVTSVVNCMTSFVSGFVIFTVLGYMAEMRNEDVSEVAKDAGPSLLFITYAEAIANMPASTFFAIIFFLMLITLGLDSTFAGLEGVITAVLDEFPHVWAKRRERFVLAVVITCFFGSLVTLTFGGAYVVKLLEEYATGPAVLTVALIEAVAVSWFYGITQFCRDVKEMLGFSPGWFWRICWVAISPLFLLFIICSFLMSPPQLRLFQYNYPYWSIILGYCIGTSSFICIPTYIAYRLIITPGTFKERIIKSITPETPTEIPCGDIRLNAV
Beta-2 adrenergic receptor, sequence (P07550 whole entry): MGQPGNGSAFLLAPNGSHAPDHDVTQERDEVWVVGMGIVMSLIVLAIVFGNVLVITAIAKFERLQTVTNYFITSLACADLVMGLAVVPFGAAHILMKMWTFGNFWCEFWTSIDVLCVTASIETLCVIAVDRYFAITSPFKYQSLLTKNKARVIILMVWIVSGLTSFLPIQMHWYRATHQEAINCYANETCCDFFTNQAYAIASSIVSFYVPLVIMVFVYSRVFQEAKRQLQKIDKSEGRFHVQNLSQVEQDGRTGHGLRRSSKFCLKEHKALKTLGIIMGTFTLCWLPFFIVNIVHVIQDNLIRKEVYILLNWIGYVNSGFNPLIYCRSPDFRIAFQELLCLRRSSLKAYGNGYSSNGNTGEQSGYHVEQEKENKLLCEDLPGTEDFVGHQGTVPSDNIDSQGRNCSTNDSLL
5-hydroxytryptamine receptor 1E, sequence (P28566 whole entry): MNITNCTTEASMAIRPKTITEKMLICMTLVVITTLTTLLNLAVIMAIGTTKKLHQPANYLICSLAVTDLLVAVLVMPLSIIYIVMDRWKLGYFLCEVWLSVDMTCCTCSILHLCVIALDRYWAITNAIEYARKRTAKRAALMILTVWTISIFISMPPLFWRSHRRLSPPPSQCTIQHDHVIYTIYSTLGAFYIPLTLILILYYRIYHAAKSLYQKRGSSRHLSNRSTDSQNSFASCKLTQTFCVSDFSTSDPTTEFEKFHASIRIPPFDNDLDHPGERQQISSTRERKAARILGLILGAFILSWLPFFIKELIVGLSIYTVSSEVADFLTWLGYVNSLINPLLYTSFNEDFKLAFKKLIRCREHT

SMILES: Clc1ccc2c(c1)C1CC2CCCN1CCc1ccccc1 (configuration not stated)
Ki [4]: 248 nM | Ki [5]: 23 nM

SMILES: CCCN1CCN(c2ccc3c(c2)C(N(C)C(=O)Cc2ccccc2)CCC3)CC1 (configuration not stated)
Ki [6]: 188 nM | Ki [7]: 53 nM

SMILES: CCN(CC)C(=O)CCN1CCN(c2ccc3c(c2)C(N(C)C(=O)OCc2ccccc2)CCC3)CC1 (configuration not stated)
Ki [1]: 2100 nM | Ki [3]: 7.2 nM

SMILES: CCOC(=O)CCN1CCN(c2ccc3c(c2)C(N(C)C(=O)OCc2ccccc2)CCC3)CC1 (configuration not stated)
Ki [1]: 1650 nM | Ki [3]: 4.5 nM

SMILES: CN1CCN(c2ccc3c(c2)C(N(C)C(=O)OCc2ccccc2)CCC3)CC1 (configuration not stated)
Ki [1]: 2940 nM | Ki [3]: 284 nM

SMILES: CCN1CCN(c2ccc3c(c2)C(N(C)C(=O)OCc2ccccc2)CCC3)CC1 (configuration not stated)
Ki [1]: 887 nM | Ki [3]: 35 nM

SMILES: CC(C)N1CCN(c2ccc3c(c2)C(N(C)C(=O)OCc2ccccc2)CCC3)CC1 (configuration not stated)
Ki [1]: 223 nM | Ki [3]: 8.3 nM

SMILES: CN(C(=O)OCc1ccccc1)C1CCCc2ccc(N3CCN(C4CCC4)CC3)cc21 (configuration not stated)
Ki [1]: 266 nM | Ratio Ki [2]: 41 | Ki [3]: 12 nM

SMILES: CCOC(=O)CN1CCN(c2ccc3c(c2)C(N(C)C(=O)OCc2ccccc2)CCC3)CC1 (configuration not stated)
Ki [1]: > 10000 nM | Ki [3]: 894 nM

SMILES: CCCN1CCN(c2ccc3c(c2)C(N(C)C(=O)CCc2ccccc2)CCC3)CC1 (configuration not stated)
Ki [1]: 973 nM | Ki [7]: 17 nM | Ratio Ki [8]: 2

SMILES: COCCN1CCN(c2ccc3c(c2)C(N(C)C(=O)OCc2ccccc2)CCC3)CC1 (configuration not stated)
Ki [1]: 1050 nM | Ki [7]: 128 nM

SMILES: CN(C(=O)OCc1ccccc1)C1CCCc2ccc(N3CCN(CCCO)CC3)cc21 (configuration not stated)
Ki [1]: 474 nM | Ki [3]: 21 nM

SMILES: CCCN1CCN(c2ccc3c(c2)C(N(C)C(=O)/C=C/c2ccccc2)CCC3)CC1 (configuration not stated)
Ki [6]: 196 nM | Ki [7]: 9.6 nM | Ratio Ki [8]: 3.4

SMILES: CCCN1CCN(c2ccc3c(c2)C(N(CC)C(=O)OCc2ccccc2)CCC3)CC1 (configuration not stated)
Ki [1]: 321 nM | Ki [3]: 4.6 nM

SMILES: CCCN1CCN(c2ccc3c(c2)C(N(CCCO)C(=O)OCc2ccccc2)CCC3)CC1 (configuration not stated)
Ki [1]: 254 nM | Ki [7]: 135 nM

SMILES: CCCN1CCN(c2ccc3c(c2)C(N(CCCCCCCCCCCN)C(=O)OCc2ccccc2)CCC3)CC1 (configuration not stated)
Ki [3]: 16.6 nM

The next lines start with results.

Ki [1]: 16 nM | Ki [3]: 2.1 nM
SMILES: CN(C(=O)OCc1ccccc1)C1CCCc2ccc(N3CCN(C4CCCCC4)CC3)cc21 (configuration not stated)
Ratio Ki [2]: 7.6

Ki [1]: 104 nM | Ki [3]: 50 nM
SMILES: CCCN1CCN(c2ccc3c(c2)C(OCc2ccccc2)CCC3)CC1 (configuration not stated)

Ki [1]: 187 nM | Ki [7]: 35 nM
SMILES: CCCN1CCN(c2ccc3c(c2)C(N(CCC(=O)OCC)C(=O)OCc2ccccc2)CCC3)CC1 (configuration not stated)

Ki [1]: 40 nM | Ki [3]: 13 nM
SMILES: CCCN1CCN(c2ccc3c(c2)CCCC3N(C)C(=O)OCc2ccccc2)CC1 (configuration not stated)

Ki [1]: 86 nM | Ki [3]: 2.1 nM
SMILES: CN(C(=O)OCc1ccccc1)C1CCCc2ccc(N3CCN(C4CCCC4)CC3)cc21 (configuration not stated)

Ki [1]: 21 nM | Ki [7]: 17 nM
SMILES: CCCN1CCN(c2ccc3c(c2)C(OCCCc2ccccc2)CCC3)CC1 (configuration not stated)

Ki [1]: 33 nM | Ki [3]: 25 nM
SMILES: CCCN1CCN(c2ccc3c(c2)C(OC(=O)CCc2ccccc2)CCC3)CC1 (configuration not stated)

Ki [1]: 199 nM | Ki [3]: 9.4 nM
SMILES: CCCN1CCN(c2ccc3c(c2)C(N(CCC)C(=O)OCc2ccccc2)CCC3)CC1 (configuration not stated)

Ki [1]: 12 nM | Ki [3]: 26 nM
SMILES: CCCN1CCN(c2cccc3c2CCCC3N(C)C(=O)OCc2ccccc2)CC1 (configuration not stated)

Ki [1]: 140 nM | Ki [7]: 15 nM
SMILES: CCCN1CCN(c2ccc3c(c2)C(OC/C=C/c2ccccc2)CCC3)CC1 (configuration not stated)

Ki (D(2) dopamine receptor): > 10000 nM | half-life [9]: 1.2 h | Kp at 4 h [10]: 2.8 | Ki [11]: > 10000 nM | Ki [12]: > 10000 nM | Ki [6]: 82 nM | Ki (Mu-type opioid receptor): > 10000 nM | Ki [13]: > 10000 nM | Ki [14]: > 10000 nM | Ki [15]: > 10000 nM | Ki [1]: 200 nM | Ki [16]: > 10000 nM | Ki [17]: > 10000 nM | Kp uu at 4 h [18]: 0.36 | Ki [19]: > 10000 nM | Ki [7]: 33 nM | Ki [21]: > 10000 nM | Ki [22]: > 10000 nM | Ki [24]: > 10000 nM | efflux ratio (P-glycoprotein (MDR1)): 1 | Ki [25]: > 10000 nM | Ki [26]: > 10000 nM | concentration at 4 h [27]: 104 nM | Ki [28]: > 10000 nM | Ki [3]: 5.5 nM | Ki [29]: > 10000 nM | Ki [30]: > 10000 nM | Ki [31]: > 10000 nM | Ki (Translocator protein): 8330 nM
SMILES: CCCN1CCN(c2ccc3c(c2)C(N(C)C(=O)OCc2ccccc2)CCC3)CC1 (configuration not stated)
Ratio Ki [20]: 6 | Ratio Ki [23]: 2.5 | Ratio Ki [2]: 36

Source: ChEMBL document CHEMBL5338720, “Targeting σ2R/TMEM97 with novel aminotetralins” (Eur J Med Chem, 2022)
